Experimental data from patent US20240115557A1, “INHIBITORS OF RNA-GUIDED NUCLEASES AND USES THEREOF” (The Brigham and Women's Hospital, Inc., priority 2022, published 2024).

Target: T1, SaCas9 (Staphylococcus aureus, UniProt J7RUA5)
T1 sequence (J7RUA5 1-1053): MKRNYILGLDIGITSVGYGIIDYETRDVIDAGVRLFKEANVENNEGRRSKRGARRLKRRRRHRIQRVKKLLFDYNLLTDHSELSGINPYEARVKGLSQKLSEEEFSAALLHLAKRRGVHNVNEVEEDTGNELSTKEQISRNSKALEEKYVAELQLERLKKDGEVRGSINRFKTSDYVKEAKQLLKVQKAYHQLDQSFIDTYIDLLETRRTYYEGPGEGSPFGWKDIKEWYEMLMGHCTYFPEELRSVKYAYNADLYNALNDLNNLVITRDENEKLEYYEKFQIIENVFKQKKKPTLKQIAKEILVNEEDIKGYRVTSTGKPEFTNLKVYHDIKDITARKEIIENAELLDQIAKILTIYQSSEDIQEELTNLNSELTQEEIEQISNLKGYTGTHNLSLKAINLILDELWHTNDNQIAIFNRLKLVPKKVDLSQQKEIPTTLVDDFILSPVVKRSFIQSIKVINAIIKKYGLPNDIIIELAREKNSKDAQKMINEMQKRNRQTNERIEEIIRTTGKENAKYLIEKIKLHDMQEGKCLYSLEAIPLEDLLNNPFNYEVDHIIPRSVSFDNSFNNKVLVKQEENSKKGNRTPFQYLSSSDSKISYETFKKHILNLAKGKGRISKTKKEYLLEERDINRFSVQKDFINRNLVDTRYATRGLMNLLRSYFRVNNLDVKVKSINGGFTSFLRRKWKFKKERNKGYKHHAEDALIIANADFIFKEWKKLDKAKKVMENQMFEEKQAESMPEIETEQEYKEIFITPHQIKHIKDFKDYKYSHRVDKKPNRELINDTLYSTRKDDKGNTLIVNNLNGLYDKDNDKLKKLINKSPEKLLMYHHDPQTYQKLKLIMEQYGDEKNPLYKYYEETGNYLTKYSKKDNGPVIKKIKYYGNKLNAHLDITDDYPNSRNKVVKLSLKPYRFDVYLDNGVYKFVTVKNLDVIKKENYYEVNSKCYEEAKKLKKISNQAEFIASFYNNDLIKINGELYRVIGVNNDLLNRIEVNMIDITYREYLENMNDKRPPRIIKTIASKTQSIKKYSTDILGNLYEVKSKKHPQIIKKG
Test: Strand displacement assay, SaCas9 primary screen
Format: biochemical
Conditions: for Auto Zscore Rep 1 / Auto Zscore Rep 2 / Normalized Zscore Rep 1 / Normalized Zscore Rep 2: SaCas9 primary screen; for Auto Zscore Rep 1 / Normalized Zscore Rep 1: replicate 1; for Auto Zscore Rep 2 / Normalized Zscore Rep 2: replicate 2; for Normalized Zscore Rep 1 / Normalized Zscore Rep 2: weaker potential hits; for 3 sigma Hit: flag 1 = hit at 3 sigma; for 5 sigma Hit: flag 1 = hit at 5 sigma
Procedure: An overview of the screening for SaCas9 inhibitors is depicted in FIG. 14. A total of 43,168 Compounds were screened from the ICCB Libraries. Libraries screened for the initial compounds include ChemDiv 7 (34,848 cpds), Enamine 1 (5,280 cpds), ChemDiv1 (1,760 cpds), NIH Clinical Collection (450 cpds), Biomol 4—FDA Approved Library (640 cpds). A hit is determined from the Zscore, with 3-5σ being a weak hit, >5σ being a strong hit. The results of the hits include 193 Weak Hits and 249 Strong Hits. The NIH Clinical Collection 1-2014 was screened for 450 of 450 compounds, with 7 hits—1.5%. The Biomol 4—FDA Approved Library was screened for 640 of 640 compounds, with 8 hits—1.2%. […] Enamine 1 was screened for 5,280 of 6,004 compounds, with 44 hits—0.83%. Libraries are commercially available, with reference numbers utilized for compounds identifying the compound structures used. […]
Generalization of CAA to other Cas nucleases. Applicants sought to generalize CAA to other CRISPR-associated nucleases, including from Staphylococcus aureus (SaCas9). Given the similarities between SaCas9 and SpCas9 modes of DNA-substrate binding and protein folding,^26, 27 Applicants hypothesized that SaCas9-induced strand displacement could be similarly measured. Indeed, fluorescence quenching correlated with substrate cleavage in the CAA assay with active SaCas9:gRNA and an ACGGGT PAM sequence, which was validated with gel electrophoresis (FIG. 62F,G and FIG. 69F).
First, Applicants optimized various components and conditions of the strand displacement assay for Cas enzyme activity and generality with different Cas such as SpCas9 (FIG. 62B) or SaCas9 (FIG. 69F) or FnCas12a (FIG. 70A,B). Typically, SpCas9: gRNA (1:1.2 ratio) RNP was pre-formed at 1 μM in Cas9 assay buffer (20 mM Tris-HCl, pH=7.5, 100 mM KCl, 5 mM MgCl2) for 5 min at 4° C. before diluting to 10 nM in Cas9 assay buffer (2× final concentration). 25 μL of the Cas9 2× stock was manually dispensed to a black 384-well plate (Corning 3575) using electronic pipette. Apo SpCas9 (without guide RNA) was used at the same concentration as a control for no activity (mock inhibition). Following this, pre-annealed Alexa-Fluor 647 labeled substrate and quencher were also diluted to 1 nM and 5 nM in Cas9 assay buffer, respectively (2× stock solution). Next, 25 μL of the substrate/quencher solution was added manually to each well of the Cas9-containing 384-well plates using an electronic pipette and was incubated at 37° C. for 2.5 h. Fluorescent signals were read with the microplate reader set to read Alexa-Fluor 647 fluorescence. Assay was performed similarly with SaCas9 and FnCas12a using the respective enzyme, gRNA, substrate, and quencher oligos. Applicants similarly divulged the effect of PAM sequences of dsDNA on its assay specificity using TGG, TGC, AAC PAM containing substrates for SpCas9 (FIG. 62C), and ACGGGT, ACGGTT, TGCCCA PAM substrate for SaCas9 (FIG. 62F) and TTTC, TTGC, AAAG PAM substrates for FnCpf1 (FIG. 63B-C). Applicants also optimized the effective concentration of DS-AF647 and SS-AF647 fluorophores (FIG. 64A), DS-substrate to SpCas9 RNP ratio (FIG. 64B) and substrate to quencher ratio (FIG. 64C) on assay performance. Similarly, Applicants performed a time course experiment to establish the time required for maximum completion of the reaction at various substrate to SpCas9 RNP ratios (FIG. 64D).

Compound | Auto Zscore Rep 1 | Auto Zscore Rep 2 | Normalized Zscore Rep 1 | Normalized Zscore Rep 2 | 3 sigma Hit | 5 sigma Hit
Cc1noc2c1C(c1ccc(O)c(O)c1)C1=C(CC(c3ccccc3)CC1=O)N2 (centres unmarked) [Cpd D588-0186] | 0.2858 | −0.8337 | 0.2526 | 0.3021 | 1 | 1
Cc1noc2c1C(c1ccc(O)c(O)c1)C1=C(CC(c3ccc(O)cc3)CC1=O)N2 (centres unmarked) [Cpd D588-0188] | 0.6685 | 0.2374 | 0.2133 | 0.2195 | 1 | 1
CCOc1ccc(NC(=O)c2oc3cc(C)ccc3c2C)c2cccnc12 [Cpd D656-0040] | −0.413 | −1.287 | 0.4389 | 0.3581 | 1 | 1
Cc1cccc(Nc2nc(C(N)=O)c(NC(=O)c3ccc(F)cc3)s2)c1C [Cpd D686-0236] | 2.51 | 1.919 | 0.2077 | 0.4936 | 1 | –
O=c1oc2c(O)c(O)ccc2c2c1CCC2 [Cpd D715-0012] | −0.8066 | −0.8068 | 0.4402 | 0.5823 | 1 | 1
O=c1ccc2ccc(OCc3nnn[nH]3)cc2o1 [Cpd D715-0997] | 1.322 | 0.6629 | 0.2335 | 0.4628 | 1 | –
O=c1oc2cc(OCc3nnn[nH]3)c(Cl)cc2c2c1CCC2 [Cpd D715-1040] | 0.03234 | 2.456 | 0.2698 | 0.4064 | 1 | 1
Cc1ccc(OCc2nn3c(-c4ccoc4C)nnc3s2)cc1 [Cpd D727-0112] | −0.1513 | −0.2297 | 0.2865 | 0.3127 | 1 | 1
Cc1ccc(OCc2nn3c(-c4ccoc4C)nnc3s2)cc1C [Cpd D727-0113] | 1.744 | −0.999 | 0.1802 | 0.1627 | 1 | –
Cc1occc1-c1nnc2sc(COc3ccc(Br)cc3)nn12 [Cpd D727-0114] | 1.154 | −0.6566 | 0.2766 | 0.2635 | 1 | 1
Fc1ccc(-c2nn3c(CSc4ccccc4)nnc3s2)cc1 [Cpd D727-0190] | 0.8466 | −0.6764 | 0.2272 | 0.2685 | 1 | 1
COCCc1nnc2n1N=C(c1ccc(Cl)cc1)CS2 [Cpd D727-0342] | −0.6224 | 1.036 | 0.1633 | 0.1771 | 1 | –
c1ccc(-c2nnc3sc(-c4ccncc4)nn23)nc1 [Cpd D727-0542] | −0.3775 | 1.249 | 0.1921 | 0.2295 | 1 | 1
Cc1cc(-c2nn3c(C(C)C)nnc3s2)no1 [Cpd D727-0612] | −0.2589 | −0.2694 | 0.1368 | 0.1972 | 1 | –
Cc1cc(-c2nn3c(COc4ccccc4)nnc3s2)no1 [Cpd D727-0624] | 1.24 | 0.8474 | 0.2151 | 0.2232 | 1 | 1
Cc1cc(-c2nnc3sc(COc4ccccc4Cl)nn23)[nH]n1 [Cpd D727-0910] | 0.8719 | 0.05327 | 0.2028 | 0.2126 | 1 | –
CC1(C)CC(=O)C2=C(C1)Nc1onc(C(C)(C)C)c1C2c1ccc(O)c(O)c1 (centres unmarked) [Cpd D733-0293] | −1.043 | 2.015 | 0.4191 | 0.3634 | 1 | 1
CN1C(C(=O)Nc2sc3c(c2C(N)=O)CCCC3)=CC(c2ccc(F)cc2)=NS1(=O)=O [Cpd E135-0568] | 0.3653 | −0.5622 | 0.1731 | 0.1458 | 1 | –
CC1CCC(NC(=O)C2(C)Cn3c(cc4occc43)C(=O)N2CCN(C)C2CCCCC2)CC1 (centres unmarked) [Cpd E218-0425] | −0.4666 | 0.1007 | 0.2235 | 0.1821 | 1 | –
CC1(C(=O)NC2CCCCC2)Cn2c(cc3ccccc32)C(=O)N1c1ccc2c(c1)OCCO2 (centres unmarked) [Cpd E234-0056] | 1.418 | 1.057 | 0.2592 | 0.1597 | 1 | –
Cc1sc2c(c1C)CSC(C(=O)Nc1c(C)n(C)n(-c3ccccc3)c1=O)=C2 [Cpd E722-1395] | −0.03529 | 0.492 | 0.2255 | 0.1818 | 1 | –
